Measurements from ChEMBL document CHEMBL5724914, “Linking interpersonal differences in gut microbiota composition and drug biotransformation activity” (2024).

Assay: (§1) The drug is tested on Z-021 corresponding to metagenome with ENA study accession number: PRJEB37062 and ENA sample accession number: ERS12561820 for biotransformation under anaerobic condition. The drug concentrations were measured over 9 timepoints collected between 0 and 24 hours of incubation by liquid-chromatography-coupled mass spectrometry (LC–MS)
Conditions: 2 µM
Also: call rule not given here.

Compound | Bacterial Biotransformation
CCN(CC)C(=O)C1(c2ccccc2)CC1CN (stereo not given) | Compound NOT metabolized
COc1ccc(/C=C/C(=O)Nc2ccccc2C(=O)O)cc1OC | Compound metabolized

Assay: (§2) The drug is tested on Z-019 corresponding to rat gut metagenome with ENA study accession number: PRJEB37062 and ENA sample accession number: ERS12561818 for biotransformation under anaerobic condition. The drug concentrations were measured over 9 timepoints collected between 0 and 24 hours of incubation by liquid-chromatography-coupled mass spectrometry (LC–MS)
Conditions: 2 µM

Compound | Bacterial Biotransformation
CCN(CC)C(=O)C1(c2ccccc2)CC1CN (stereo not given) | Compound NOT metabolized
COc1ccc(/C=C/C(=O)Nc2ccccc2C(=O)O)cc1OC | Compound NOT metabolized

Assay: as §2, with “on Z-018” for “on Z-019”, “to pig” for “to rat”, “number: ERS12561817” for “number: ERS12561818”
Conditions: 2 µM

Compound | Bacterial Biotransformation
CCN(CC)C(=O)C1(c2ccccc2)CC1CN (stereo not given) | Compound NOT metabolized
COc1ccc(/C=C/C(=O)Nc2ccccc2C(=O)O)cc1OC | Compound metabolized

Assay: as §2, with “on Z-017” for “on Z-019”, “to mouse” for “to rat”, “number: ERS12561816” for “number: ERS12561818”
Conditions: 2 µM

Compound | Bacterial Biotransformation
CCN(CC)C(=O)C1(c2ccccc2)CC1CN (stereo not given) | Compound NOT metabolized
COc1ccc(/C=C/C(=O)Nc2ccccc2C(=O)O)cc1OC | Compound NOT metabolized

Assay: as §2, with “Z-014” for “Z-019”, “ERS12561814” for “ERS12561818”
Conditions: 2 µM

Compound | Bacterial Biotransformation
CCN(CC)C(=O)C1(c2ccccc2)CC1CN (stereo not given) | Compound NOT metabolized
COc1ccc(/C=C/C(=O)Nc2ccccc2C(=O)O)cc1OC | Compound metabolized

Assay: as §1, with “Z-010” for “Z-021”, “ERS12561810” for “ERS12561820”
Conditions: 2 µM

Compound | Bacterial Biotransformation
CCN(CC)C(=O)C1(c2ccccc2)CC1CN (stereo not given) | Compound NOT metabolized
COc1ccc(/C=C/C(=O)Nc2ccccc2C(=O)O)cc1OC | Compound metabolized

Assay: as §1, with “Z-005” for “Z-021”, “ERS12561805” for “ERS12561820”
Conditions: 2 µM

Compound | Bacterial Biotransformation
CCN(CC)C(=O)C1(c2ccccc2)CC1CN (stereo not given) | Compound NOT metabolized
COc1ccc(/C=C/C(=O)Nc2ccccc2C(=O)O)cc1OC | Compound metabolized

Assay: as §2, with “on Z-001” for “on Z-019”, “to mouse” for “to rat”, “number: ERS12561801” for “number: ERS12561818”
Conditions: 2 µM

Compound | Bacterial Biotransformation
CCN(CC)C(=O)C1(c2ccccc2)CC1CN (stereo not given) | Compound NOT metabolized
COc1ccc(/C=C/C(=O)Nc2ccccc2C(=O)O)cc1OC | Compound NOT metabolized

Assay: as §2, with “on WLS-170” for “on Z-019”, “to human” for “to rat”, “number: ERS12561762” for “number: ERS12561818”
Conditions: 2 µM

Compound | Bacterial Biotransformation
CCN(CC)C(=O)C1(c2ccccc2)CC1CN (stereo not given) | Compound metabolized
COc1ccc(/C=C/C(=O)Nc2ccccc2C(=O)O)cc1OC | Compound NOT metabolized

Assay: as §2, with “on WLS-090” for “on Z-019”, “to human” for “to rat”, “number: ERS12561753” for “number: ERS12561818”
Conditions: 2 µM

Compound | Bacterial Biotransformation
CCN(CC)C(=O)C1(c2ccccc2)CC1CN (stereo not given) | Compound NOT metabolized
COc1ccc(/C=C/C(=O)Nc2ccccc2C(=O)O)cc1OC | Compound NOT metabolized

Assay: as §2, with “on WLS-086” for “on Z-019”, “to human” for “to rat”, “number: ERS12561752” for “number: ERS12561818”
Conditions: 2 µM

Compound | Bacterial Biotransformation
CCN(CC)C(=O)C1(c2ccccc2)CC1CN (stereo not given) | Compound NOT metabolized
COc1ccc(/C=C/C(=O)Nc2ccccc2C(=O)O)cc1OC | Compound NOT metabolized

Assay: as §2, with “on WLS-082” for “on Z-019”, “to human” for “to rat”, “number: ERS12561751” for “number: ERS12561818”
Conditions: 2 µM

Compound | Bacterial Biotransformation
CCN(CC)C(=O)C1(c2ccccc2)CC1CN (stereo not given) | Compound NOT metabolized
COc1ccc(/C=C/C(=O)Nc2ccccc2C(=O)O)cc1OC | Compound metabolized

Assay: as §2, with “on WLS-039” for “on Z-019”, “to human” for “to rat”, “number: ERS12561746” for “number: ERS12561818”
Conditions: 2 µM

Compound | Bacterial Biotransformation
CCN(CC)C(=O)C1(c2ccccc2)CC1CN (stereo not given) | Compound NOT metabolized
COc1ccc(/C=C/C(=O)Nc2ccccc2C(=O)O)cc1OC | Compound metabolized

Assay: as §2, with “on WLS-027” for “on Z-019”, “to human” for “to rat”, “number: ERS12561744” for “number: ERS12561818”
Conditions: 2 µM

Compound | Bacterial Biotransformation
CCN(CC)C(=O)C1(c2ccccc2)CC1CN (stereo not given) | Compound NOT metabolized
COc1ccc(/C=C/C(=O)Nc2ccccc2C(=O)O)cc1OC | Compound metabolized

Conditions: human gut metagenome, 24 h, 2 µM

Compound | Bacterial Biotransformation
CCN(CC)C(=O)C1(c2ccccc2)CC1CN (stereo not given) | Compound NOT metabolized
COc1ccc(/C=C/C(=O)Nc2ccccc2C(=O)O)cc1OC | Compound NOT metabolized

Conditions: human gut metagenome, 24 h, 2 µM
Remark: another data set of the same source

Compound | Bacterial Biotransformation
CCN(CC)C(=O)C1(c2ccccc2)CC1CN (stereo not given) | Compound NOT metabolized
COc1ccc(/C=C/C(=O)Nc2ccccc2C(=O)O)cc1OC | Compound NOT metabolized

Conditions: human gut metagenome, 24 h, 2 µM
Remark: another data set of the same source

Compound | Bacterial Biotransformation
CCN(CC)C(=O)C1(c2ccccc2)CC1CN (stereo not given) | Compound NOT metabolized
COc1ccc(/C=C/C(=O)Nc2ccccc2C(=O)O)cc1OC | Compound metabolized

Conditions: human gut metagenome, 24 h, 2 µM
Remark: another data set of the same source

Compound | Bacterial Biotransformation
CCN(CC)C(=O)C1(c2ccccc2)CC1CN (stereo not given) | Compound NOT metabolized
COc1ccc(/C=C/C(=O)Nc2ccccc2C(=O)O)cc1OC | Compound NOT metabolized

Conditions: human gut metagenome, 24 h, 2 µM
Remark: another data set of the same source

Compound | Bacterial Biotransformation
CCN(CC)C(=O)C1(c2ccccc2)CC1CN (stereo not given) | Compound NOT metabolized
COc1ccc(/C=C/C(=O)Nc2ccccc2C(=O)O)cc1OC | Compound metabolized

Conditions: human gut metagenome, 24 h, 2 µM
Remark: another data set of the same source

Compound | Bacterial Biotransformation
CCN(CC)C(=O)C1(c2ccccc2)CC1CN (stereo not given) | Compound NOT metabolized
COc1ccc(/C=C/C(=O)Nc2ccccc2C(=O)O)cc1OC | Compound metabolized
